Common to all, as to type: biochemical
The subject of experiment [1] is commercial catalase TERMINOX® Ultra 50L. Kind of experiment: Filter paper float test of catalase de-activation using papermaking white water. To be noted: 500 ppm inhibitor. Here is the method:
(§1) A filter paper float test was carried out to study catalase deactivation performance of aldehyde-functional polymers and a conventional catalase inhibitor on bleached paper. In a typical float test, a one-inch square piece of filter paper was saturated with 50% H2O2 solution. With excess H2O2 solution being removed, the treated filter paper was submerged in 200 mL aqueous catalase solution or 200 mL de-inking white water. The catalase solution was prepared by diluting a commercial catalase solution with either distilled water or papermaking white water. Various amounts of the catalase inhibitors being studied were mixed with the catalase solution or de-inking white water for five minutes before the treated filter paper was submerged in the catalase solution or de-inking white paper. Controls also were carried out in which no catalase inhibitor was added to the catalase solution or de-inking paper before the treated filter was submerged therein. The time that was required for the filter paper to rise to the solution surface was recorded and used to determine H2O2 decomposition rate. A longer time for the filter paper to rise to the surface indicated a slower H2O2 decomposition rate.
To test the effect of dissolved and colloidal substances on catalase inhibitors, float tests were also carried out with the white water obtained from a newsprint papermaking mill. […]

Experiment [2] shares this test system. Kind of experiment: Filter paper float test of catalase de-activation using distilled water. As to conditions: for Float time: 20 μL catalase/1000 mL distilled water, no-inhibitor float time 75 sec. Here is the method:
as §1
Catalase de-activation performance of a glyoxalated polyacrylamide (G-PAM) and glutaraldehyde was tested with the filter paper float test using distilled water. As indicated, in a typical test, a square piece of filter was first saturated with 50% H2O2 solution. Various amounts of the two types of catalase inhibitors being studied in this example were mixed with the catalase solution prepared with distilled water for five minutes before the treated filter paper was submerged in the catalase solution. Once the treated filter paper was submerged in catalase solution, catalase started decomposing H2O2 molecules, releasing O2 gas. The faster the H2O2 decomposition rate, the faster the O2 gas being generated, and the shorter the time required for the filter paper to rise to the solution surface. On the other hand, the presence of catalase inhibition will slow down the H2O2 decomposition rate, resulting in longer periods of time for the filter paper to rise to the surface.
Table 1 presents the results of the float tests conducted with 20 μL commercial catalase TERMINOX® Ultra 50L diluted by 1000 mL distilled water to prepare the catalase solution. As indicated, glutaraldehyde and glyoxalated polyacrylamide were studied as the catalytic inhibitors. Glutaraldehyde was chosen as a control for this example. Large quantities of glutaraldehyde are commercially used as a catalase inhibitor. BUBOND® 387 was the source of the glyoxalated polyacrylamide.

Experiment [3] deals with wild catalase in de-inking white water. The experiment in a line: Filter paper float test of catalase de-activation using de-inking white water. Here is the method:
as §1
As an initial observation made with respect to the controls that contained no catalase inhibitor, a significant difference was observed between the papermaking and de-inking sources of white water with respect to wild catalase content. […] The presence of wild catalase in the de-inking white water was confirmed by the float tests. It only took about 40 seconds for the peroxide-treated filter paper to rise to the surface of the de-inking white water that had not been treated with catalase inhibitor (e.g., see Control A, Table 4 below).
Float tests were also carried out with the de-inking white water obtained from a papermaking mill. Various amounts of the catalase inhibitors being studied for this example were mixed with the de-inking white water for five minutes before the treated filter paper was submerged in the de-inking white water. […]

1 compound from US20100126680A1, “Method For Controlling Enzymatic Decomposition Of Peroxide and Products Thereof” (BUCKMAN LABORATORIES INTERNATIONAL, INC., priority 2008, published 2010) can be followed below.

Regarding `O=CCCCC=O` [Glutaraldehyde], the “Float time” value in experiment [1] (10 μL catalase/1000 mL papermaking white water, no-inhibitor float time 197 sec) came out at 301 s; in experiment [1] (20 μL catalase/1000 mL papermaking white water, no-inhibitor float time 67 sec) it was 130 s; in experiment [2] (50 ppm inhibitor), 80 s; in experiment [2] (100 ppm inhibitor) it was 72 s; in experiment [2] (150 ppm inhibitor), 88 s; in experiment [2] (200 ppm inhibitor), 103 s. For the same compound, the “Float time” value in experiment [2] (300 ppm inhibitor) worked out at 117 s; in experiment [2] (500 ppm inhibitor), 128 s; in experiment [3] (Dosage 2000 ppm, de-inking white water pre-treated with 1000 ppm BUSAN® 1078 bactericide for 30 minutes, no-inhibitor Control B 35 sec), 40 s; in experiment [3] (Dosage 2000 ppm, de-inking white water, no-inhibitor Control A 39 sec) it was 68 s; in experiment [3] (Dosage 4000 ppm, de-inking white water pre-treated with 1000 ppm BUSAN® 1078 bactericide for 30 minutes, no-inhibitor Control B 35 sec) it was 37 s. Also, the “filter paper float time” value in experiment [2] (below 100 ppm inhibitor, distilled water catalase solution) is on record as “around 75 seconds”.
